Experimental data taken from patent US9884851B2, “Heterocycle-bisamide inhibitors of scavenger receptor BI” (THE BROAD INSTITUTE, INC., priority 2012, dated 2018).
≈ marks a conversion by molar mass, not a printed value. Read-outs that look alike come from different tables or passages of the source.

What was measured:
murine SR-BI, isoform 1 = molecular target: T1, murine SR-BI, isoform 1 (Mus musculus, UniProt Q61009); assay: DiI-HDL uptake assay (primary assay); type: cell-based; details: ldlA[mSR-BI] cells, 3 hours with compound
T1 construct: expressed in transfected cells; host or cells: ldlA[mSR-BI], Chinese hamster ovary (CHO) cells lacking LDL receptor (Krieger Laboratory)
T1 sequence (Q61009 1-509): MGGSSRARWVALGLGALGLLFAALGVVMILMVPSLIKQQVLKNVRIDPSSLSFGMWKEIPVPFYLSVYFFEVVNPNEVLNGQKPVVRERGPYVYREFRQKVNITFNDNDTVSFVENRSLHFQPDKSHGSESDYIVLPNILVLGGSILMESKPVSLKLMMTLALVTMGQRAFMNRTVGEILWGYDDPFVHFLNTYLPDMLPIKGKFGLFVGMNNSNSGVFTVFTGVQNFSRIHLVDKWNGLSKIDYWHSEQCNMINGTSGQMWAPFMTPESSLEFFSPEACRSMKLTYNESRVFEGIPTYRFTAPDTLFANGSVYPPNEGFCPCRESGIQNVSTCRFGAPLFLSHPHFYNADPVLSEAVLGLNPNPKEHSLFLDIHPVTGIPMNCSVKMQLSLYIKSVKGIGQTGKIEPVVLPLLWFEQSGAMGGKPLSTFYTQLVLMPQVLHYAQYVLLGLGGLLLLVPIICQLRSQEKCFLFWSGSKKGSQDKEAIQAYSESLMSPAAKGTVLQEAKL
Method: The following cell lines were used in this study: • ldlA[mSR-BI] is a Chinese hamster ovary (CHO) cell line that overexpresses murine SR-BI, isoform 1 (NP_058021) and was obtained from the (Krieger Laboratory). This cell line was used for the primary assay and several secondary assays. […] Assays DiI-HDL Uptake Assay (Primary Assay AID Nos. 488896, 493194, 540354 588392, 588553, 588548, 588754, 588828, 588833)
ldlA[mSR-BI] cells were plated into 384-well plates at 30 μl per well and incubated overnight. As a measurable surrogate for cholesterol uptake, human HDL particles were treated with the lipophilic fluorescent dye DiI and exposed to ldlA[mSR-BI] cells in lipoprotein-free media (Ham's F12/0.5% fatty acid-free Bovine Serum Albumin (BSA)/25 mM HEPES pH 7.4 plus 10 μg protein/ml DiI-HDL). Cells took up the DiI via SR-BI over 3 hours in the presence of compound. After significant uptake of the DiI, the cells became fluorescent. The level of fluorescence correlates with the amount of DiI uptake and can be measured with a standard plate reader (here a PerkinElmer EnVision plate reader was used). The uptake of lipid (represented by DiI) was inhibited by the positive control compound BLT-1 or with an excess of HDL untreated with DiI. Primary HTS data were analyzed in Genedata Screener Assay Analyzer, and were normalized against DMSO and the positive control (1 μM BLT-1). For the HTS, the average of two replicates was used to rank order activity and to choose compounds for retests. For dose studies, percent (%) activity was determined for each concentration and the concentration response curves (CRCs) were generated with Genedata Condeseo.
To identify novel inhibitors, SR-BI-mediated lipid uptake was measured in an engineered cell line that minimized potential uptake by other mechanisms, including via the LDL receptor (1). ldlA[mSR-BI] cells overexpress murine isoform 1 and selectively take up HDL lipid at similar levels as “has been reported for cultured mouse adrenal cells, perfused organs, and liver, adrenal gland and ovary in vivo” (1). This primary cell-based assay was used in a pilot screen that identified BLTs 1 through 5. The assay was slightly modified from the original protocol of Nieland et al. to increase throughput and to ease automation procedures.
Briefly, the plate reader was switched to a Perkin-Elmer EnVision, several washing steps were eliminated, and the cell number per well was reduced without impacting the robustness of the assay. The automated assay was first tested with a validation set of 2,240 compounds. These compounds were tested in duplicate with in-plate neutral (DMSO) and positive (1 μM BLT-1) controls. Robustness, reproducibility, and variability parameters were analyzed before initiating the full HTS. The HTS was run over the course of several weeks. Data were normalized relative to controls, and plate patterns were corrected using a multiplicative algorithm in Genedata Screener Assay Analyzer. For each compound, the average of the two replicates was determined and used for subsequent analysis.

hepatitis C virus (HCV) = assay: In vitro testing with Huh-7.5 cells infected with HCV; type: cell-based; details: for inhibition of HCV replication (in words): Huh-7.5 cells infected with Jcl 378-1 TagRFP (MOI=0.1), 3 dpi
Method: A series of tests were conducted using the compound of Formula II (CID53393835/ML279), other known inhibitors of SR-BI and controls with cells infected with hepatitis C virus (HCV). The cells (Huh-7.5 cells infected with Jcl 378-1 TagRFP (MOI=0.1) 3 dpi) were treated with the following SR-BI compounds and controls:
Three different infection protocols were followed: (1) no wash—virus inoculum was removed 4hpi and fresh medium containing compounds added without washing cells; (2) 5× wash—virus inoculum was removed 4hpi, cells were washed 5× with PBS and fresh medium containing compounds added; and (3) no wash Opt—infection were performed in serum-free OptiMem; virus inoculum was removed 4hpi and fresh medium containing compounds added without washing cells. FIG. 90 provides a comparison of the three different infection set-ups. FIG. 91 provides a comparison of two independent experiments.

HCVcc and HCVpp = details: primary human hepatocytes and/or human hepatoma cell lines; cited from earlier work
Solubility in PBS = type: physicochemical; details: PBS pH 7.4, 23° C., 1% DMSO
Method: We noticed that the concentration of the probe fluctuated through the course of the assay (data not shown). We believe that this fluctuation is due to the low kinetic solubility of the probe. Thus, we decided to determine the amount of undissolved probe present in the well after it was treated with PBS for a given length of time, relative to the amount of undissolved probe at the start of the assay. The wells were centrifuged and the supernatant was removed after various time points, then acetonitrile was added to dissolve the remaining solid in the wells, and the amount of probe was quantified. […] The stability of the probe was confirmed by measuring stability in human plasma, with >99% remaining after a 5-hour incubation period. […] FIG. 5 summarizes known properties of the probe.

ldlA[mSR-BI] cells = assay: Cell cytotoxicity assay (CellTiter-Glo)
Method: It is possible that a compound will cause cells to decrease HDL-mediated DiI uptake due to nonspecific consequences of cellular toxicity, representing a second class of false positive hits. The cells were treated with compounds for 3 hours or 24 hours, and then cell viability was measured using the CellTiter-Glo Assay (Promega), a luciferase-based reagent that measures cellular ATP levels. The compounds were tested at different concentrations to determine IC50 values. […] Data were normalized against DMSO and the positive control (1 μM BLT-1) in Genedata Assay Analyzer.
All available dry powder samples of the remaining, non-quenching compounds were procured from commercial sources and purities were determined. The compounds obtained were then retested in the primary assay and in cytotoxicity assays. We wanted to rule out any compounds that were cytotoxic, especially in the 3-hour time span of the primary DiI-HDL uptake assay. Therefore, compounds were tested in ldl[mSR-BI] cells for cytotoxicity at 3 hours and 24 hours using the CellTiter-Glo assay (Promega) that measures cellular ATP as a marker of cell viability. […] Compounds were screened for inhibition of endocytosis using labeled transferrin, which is known to bind the transferrin receptor, enter cells by clathrin-mediated endocytosis, and move to endosomes before being recycled to the cell surface.

SR-BI [1] = molecular target: T2, SR-BI (Mus musculus, UniProt Q61009); assay: HDL binding assay (Alexa 488 HDL); type: cell-based, murine; parameters: expressed in transfected cells; host or cells: ldlA[mSR-BI], Chinese hamster ovary (CHO) cells lacking LDL receptor (Krieger Laboratory); details: Alexa Fluor 488-labeled HDL
T2 sequence (Q61009 1-509): T1 sequence (Q61009 1-509)
Method: HDL binding was assessed using Alexa Fluor 488-labeled HDL particles. For this assay, the Alexa 488 dye was directly covalently bound to apolipoprotein components of the HDL particle via primary amines; thus, no transfer of the fluorophore to cell membranes occurs. Instead, direct binding of the HDL particles to SR-BI can be measured. As a positive control, BLT-1, which is known to increase binding, was used at 1 μM. It is possible that a compound can reduce binding of HDL to the receptor, and this would lead to a decrease in signal. This assay is used to characterize the mechanism of action of a particular compound; therefore, any outcome in the assay is acceptable. Data were normalized against DMSO and the positive control (1 μM BLT-1) in Genedata Assay Analyzer.

[2] = system: endocytosis of transferrin; assay: Transferrin endocytosis assay; type: cell-based, Chinese hamster; details: concentrations up to 35 μM
From the text: Transferrin Endocytosis Assay (SA 3: AID No. 602134)
This assay measures the endocytosis of an independent ligand, transferrin, which is not taken up via SR-BI but by clathrin-mediated endocytosis; thus providing a measure of the selectivity of the inhibitors. Alexa-594-labeled transferrin is taken into the cell via endocytosis and localization of labeled transferrin can be quantitated in the various intracellular compartments. […] Inhibitors of interest should act selectively at SR-BI and should have no activity in this assay.
Cells were pre-treated with compound for 3 hours and then treated with the Alexa-594 transferrin reagent for 30 minutes (Catalog No. T-13343; Invitrogen) in serum-free media. Plates of cells were then placed onto ice, washed with ice cold PBS, and then fixed with 4% paraformaldehyde. In addition, the nuclei were stained with 300 nM 4′,6-diamidino-2-phenylindole (DAPI) (Catalog No. 21490; Invitrogen). The cells were imaged with the Molecular Devices IXM microscope. Translocation measurements were performed using MetaExpress software and normalized for cell number.

[3] = mice; cited from earlier work
[4] = hamsters; cited from earlier work
SR-BI [5] = molecular target: T2, SR-BI; details: cited from earlier work

SMILES: C[C@@H](C(=O)NC1CCCC1)N(C(=O)Cn1nnc(-c2ccc3c(c2)OCO3)n1)C1CCCCC1 [(S)-isomer]
- IC50 (murine SR-BI, isoform 1): 1600 nM

SMILES: COc1c(NC(=O)C(=O)c2ccc(OCCN3CCOCC3)c3ccccc23)cc(C(C)(C)C)cc1NS(C)(=O)=O [ITX-5061]
- inhibition of HCV replication (in words) (hepatitis C virus (HCV); listed as 9): able to inhibit HCV replication
- inhibition of HCV replication (in words) (hepatitis C virus (HCV); listed as SRB1-9): inhibited viral replication
- mean fluorescence intensity (MFI) of HCV positive cells (in words) (hepatitis C virus (HCV); dose dependence): this increase was not seen
- IC50 (murine SR-BI, isoform 1): 254 nM
- HCVcc and HCVpp infection (in words) (HCVcc and HCVpp): inhibit HCVcc and HCVpp infection

SMILES: COCC(=O)N1CCc2cc(-c3csc(NC(=O)c4cc(OC)cc(OC)c4)n3)ccc21 [ML278, reference compound]
- IC50 (murine SR-BI, isoform 1): 0.93 nM

SMILES: COc1ccc(-c2nnn(CC(=O)N(C3CCCCC3)C(C)C(=O)NC3CCCC3)n2)cc1OC (centres unmarked) [MLS000888573, reference compound]
- solubility (Solubility in PBS): 114 µM (≈ 55.2 µg/mL)
- IC50 (murine SR-BI, isoform 1): 51 nM
- IC50 (murine SR-BI, isoform 1; listed as hit compound): 58 nM
- IC50 (ldlA[mSR-BI] cells; read-out: 3 h CellTiter-Glo IC50, 3 hours treatment): > 35000 nM
- IC50 (ldlA[mSR-BI] cells; read-out: 24 h CellTiter-Glo cytotoxicity IC50, 24 hours treatment): > 35000 nM
- AC50 (SR-BI [1]): 600 nM
- endocytosis of transferrin (in words) [2]: not grossly perturbing cellular membrane trafficking pathways

SMILES: CC(C)(C)OC(=O)N1CCN(c2ccc(NC(=O)c3cc([N+](=O)[O-])ccc3Cl)cc2)CC1 [R-138329]
- HDL-cholesterol (in words) [3]: increased HDL-cholesterol
- HDL-cholesterol (in words) [4]: increased HDL-cholesterol

SMILES: COc1ccc(Cl)cc1C(=O)NCCc1ccc(S(=O)(=O)NC(=O)NC2CCCCC2)cc1 [glyburide]
- cholesterol efflux inhibition (in words) (SR-BI [5]): relatively weak inhibitor of cholesterol efflux
